Assay results taken from US9029384B2, “Phosphatidylinositol 3-kinase inhibitors” (Gilead Calistoga LLC, priority 2012, dated 2015).
Where two headings read alike, the source gives them in different places.

Columns and labels:
PI3Kδ = biological target: T1, PI3Kδ (Homo sapiens, UniProt O00329); test: Enzymatic activity of PI3K isoforms, TR-FRET assay (PIP3 formation); type: biochemical
T1 construct: made in house
Method in brief: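 Recombinant heterodimeric class I PI3K; PIP3 product measured by TR-FRET competition with labelled PIP3 for Eu-GRP-1 PH domain. Reaction 30 min at 25 °C, stopped with 10 mM EDTA.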

basophils = test: Basophil activation in human whole blood (Flow2 CAST kit, CD63 positive cells); type: cell-based; details: basophils activated with anti-FcεRI mAb or fMLP, geometric mean
Method in brief: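 Human whole blood (K2-EDTA) preincubated 60 minutes at 37° C with compound serial dilutions or DMSO (0.3% final), then stimulated with anti-FcεRI mAb or fMLP and stained for CD63/CCR3. Percent CD63+ among ≥200 CCR3-high basophils by flow cytometry, normalized to stimulated vehicle as 100%. EC50 from four-parameter fits, geometric means in nM, concentrations corrected for reagent dilution.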

[1] = Hepatocyte stability, 1% final DMSO, 2 μM substrate (t1/2^a); type: in vitro ADME; details: human, cryopreserved hepatocytes, TA with 1% final DMSO, 2 μM substrate, samples at 0, 1, 2, 4 hours; read-out: human hepatocyte t½^a
Protocol: This assay was used to evaluate the metabolic stability of test articles (TA) following incubation in cryopreserved hepatocytes by monitoring parent drug disappearance via […]. The TA with 1% final DMSO concentration was incubated with 1 million hepatocytes/ml at 2 μM substrate in duplicate. The incubation was carried out at 37° C. with 5% CO2 and saturating humidity.

[2] = PI3Kδ, TR-FRET, 2×Km ATP, 10 μM PIP2, read-out: IC50

T1 sequence (O00329 whole entry, canonical isoform): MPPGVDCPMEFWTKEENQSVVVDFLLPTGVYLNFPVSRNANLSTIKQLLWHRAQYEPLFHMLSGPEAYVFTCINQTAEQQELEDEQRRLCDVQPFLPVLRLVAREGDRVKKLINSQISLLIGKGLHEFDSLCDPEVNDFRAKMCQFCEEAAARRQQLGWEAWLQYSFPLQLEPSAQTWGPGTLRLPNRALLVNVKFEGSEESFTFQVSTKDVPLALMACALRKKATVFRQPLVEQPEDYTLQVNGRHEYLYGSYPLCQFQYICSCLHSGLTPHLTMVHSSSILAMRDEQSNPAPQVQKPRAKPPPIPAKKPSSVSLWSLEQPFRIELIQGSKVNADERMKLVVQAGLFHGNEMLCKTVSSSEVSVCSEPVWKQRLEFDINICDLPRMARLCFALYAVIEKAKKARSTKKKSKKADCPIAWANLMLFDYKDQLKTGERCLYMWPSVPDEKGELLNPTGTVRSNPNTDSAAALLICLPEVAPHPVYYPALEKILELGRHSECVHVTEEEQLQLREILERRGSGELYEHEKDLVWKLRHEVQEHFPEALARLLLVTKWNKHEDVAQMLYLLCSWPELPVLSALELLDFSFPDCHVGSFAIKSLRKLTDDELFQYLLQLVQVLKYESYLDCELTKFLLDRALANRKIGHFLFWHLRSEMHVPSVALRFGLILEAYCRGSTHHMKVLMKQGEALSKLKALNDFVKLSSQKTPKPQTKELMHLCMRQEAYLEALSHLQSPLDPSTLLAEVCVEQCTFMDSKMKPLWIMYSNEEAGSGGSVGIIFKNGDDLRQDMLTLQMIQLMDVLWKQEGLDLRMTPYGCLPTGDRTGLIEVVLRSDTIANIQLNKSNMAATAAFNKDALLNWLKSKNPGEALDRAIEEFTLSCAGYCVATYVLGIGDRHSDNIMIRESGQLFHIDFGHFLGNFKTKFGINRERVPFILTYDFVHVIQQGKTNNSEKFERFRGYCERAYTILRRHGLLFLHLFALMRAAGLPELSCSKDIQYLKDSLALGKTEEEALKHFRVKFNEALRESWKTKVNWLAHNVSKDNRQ
T1 sequence (P27986 whole entry partner, canonical isoform): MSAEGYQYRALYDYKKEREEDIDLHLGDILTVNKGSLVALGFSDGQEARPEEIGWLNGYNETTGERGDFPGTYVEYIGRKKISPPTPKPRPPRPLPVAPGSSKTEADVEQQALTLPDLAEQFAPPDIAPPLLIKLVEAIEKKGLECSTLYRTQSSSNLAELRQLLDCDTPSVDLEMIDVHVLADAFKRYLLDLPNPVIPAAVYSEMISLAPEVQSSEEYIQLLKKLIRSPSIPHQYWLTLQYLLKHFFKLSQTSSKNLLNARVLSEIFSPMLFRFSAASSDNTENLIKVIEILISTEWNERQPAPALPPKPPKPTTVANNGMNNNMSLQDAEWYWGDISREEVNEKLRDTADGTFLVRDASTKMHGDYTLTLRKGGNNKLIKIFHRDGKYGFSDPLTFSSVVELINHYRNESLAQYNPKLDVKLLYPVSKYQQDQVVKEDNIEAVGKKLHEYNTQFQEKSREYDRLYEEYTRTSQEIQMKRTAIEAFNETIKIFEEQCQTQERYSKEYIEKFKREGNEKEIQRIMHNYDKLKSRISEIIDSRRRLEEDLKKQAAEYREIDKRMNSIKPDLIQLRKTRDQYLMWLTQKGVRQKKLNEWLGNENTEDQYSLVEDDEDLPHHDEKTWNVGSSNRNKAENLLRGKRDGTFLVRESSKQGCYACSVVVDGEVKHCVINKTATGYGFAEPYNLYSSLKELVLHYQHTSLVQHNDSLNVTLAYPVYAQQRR

SMILES | IC50 (PI3Kδ; [2]) [nM] | EC50 (basophils; Homo sapiens) [nM] | half-life at 2 μM [1] [h] | IC50 (PI3Kδ) [nM] | EC50 (basophils) [nM]
CC(Nc1nc(N)nc(N)c1C#N)c1nc2cccc(Cl)c2c(=O)n1-c1cc(F)cc(C#N)c1 (single isomer, unassigned) [Compound 20a] | 1 to 10 | 1 to 10 | 6 to 10 | – | –
Cc1cccc2nc(C(C)Nc3nc(N)nc(N)c3C#N)n(-c3cc(F)cc(C#N)c3)c(=O)c12 (single isomer, unassigned) [Compound 24a] | 1 to 10 | 1 to 10 | 6 to 10 | – | –
Cc1ccc(F)c2nc(C(C)Nc3nc(N)nc(N)c3C#N)n(-c3cc(F)cc(F)c3)c(=O)c12 (single isomer, unassigned) [Compound 25a] | < 1 | < 1 | 1 to 3 | – | –
Cc1ccc(F)c2nc(C(C)Nc3nc(N)nc(N)c3C#N)n(-c3cc(F)cc(C#N)c3)c(=O)c12 (single isomer, unassigned) [Compound 31a] | 1 to 10 | 1 to 10 | 6 to 10 | – | –
Cc1ccc(F)c2c(=O)n(-c3cc(F)cc(F)c3)c(C(C)Nc3nc(N)nc(N)c3C#N)nc12 (single isomer, unassigned) [Compound 35a] | 1 to 10 | 1 to 10 | 6 to 10 | – | –
CC(Nc1nc(N)nc(N)c1C#N)c1nc2cccc(F)c2c(=O)n1-c1cccc(C(F)(F)F)c1 (single isomer, unassigned) [Compound 40a] | 1 to 10 | 1 to 10 | 6 to 10 | – | –
CC(Nc1nc(N)nc(N)c1C#N)c1nc2cccc(Cl)c2c(=O)n1-c1cc(Cl)cc(Cl)c1 (single isomer, unassigned) [Compound 41a] | 1 to 10 | 10 to 50 | 3 to 6 | – | –
CC(Nc1nc(N)nc(N)c1C#N)c1nc2cccc(Cl)c2c(=O)n1-c1cc(F)cc(Cl)c1 (single isomer, unassigned) [Compound 43a] | 1 to 10 | 1 to 10 | 3 to 6 | – | –
CC(Nc1nc(N)nc(N)c1C#N)c1nc2c(F)ccc(Cl)c2c(=O)n1-c1cc(F)cc(C#N)c1 (single isomer, unassigned) [Compound 48a] | 10 to 50 | > 50 | > 10 | – | –
CC(Nc1nc(N)nc(N)c1C#N)c1nc2c(Cl)ccc(Cl)c2c(=O)n1-c1ccccc1 (single isomer, unassigned) [Compound 50a] | < 1 | < 1 | 6 to 10 | – | –
COc1cc(OC)cc(-n2c(C(C)Nc3nc(N)nc(N)c3C#N)nc3cccc(Cl)c3c2=O)c1 (single isomer, unassigned) [Compound 51a] | 1 to 10 | 1 to 10 | 3 to 6 | – | –
CCC(Nc1nc(N)nc(N)c1C#N)c1nc2cccc(C(F)F)c2c(=O)n1-c1cc(F)cc(F)c1 (single isomer, unassigned) [Compound 53a] | 1 to 10 | 10 to 50 | > 10 | – | –
CC(Nc1nc(N)nc(N)c1C#N)c1nc2cccc(Cl)c2c(=O)n1-c1cc(F)cc(C(F)F)c1 (single isomer, unassigned) [Compound 55a] | < 1 | 1 to 10 | 6 to 10 | – | –
CCC(Nc1nc(N)nc(N)c1C#N)c1nc2cccc(Cl)c2c(=O)n1-c1cc(F)cc(C(F)F)c1 (single isomer, unassigned) [Compound 66a] | 1 to 10 | 1 to 10 | 3 to 6 | – | –
CCC(Nc1nc(N)nc(N)c1C#N)c1nc2c(Cl)cccc2c(=O)n1-c1cc(F)cc(F)c1 (single isomer, unassigned) [Compound 72a] | 10 to 50 | > 50 | 6 to 10 | – | –
Cc1ccc(Cl)c2c(=O)n(-c3cc(F)cc(F)c3)c(C(C)Nc3nc(N)nc(N)c3C#N)nc12 (single isomer, unassigned) [Compound 73a] | 1 to 10 | < 1 | 3 to 6 | – | –
CC(Nc1nc(N)nc(N)c1C#N)c1nc2c(Cl)ccc(Cl)c2c(=O)n1-c1cc(F)cc(F)c1 (single isomer, unassigned) [Compound 74a] | 1 to 10 | < 1 | 3 to 6 | – | –
Cc1cccc2c(=O)n(-c3cc(F)cc(F)c3)c(C(C)Nc3nc(N)nc(N)c3C#N)nc12 (single isomer, unassigned) [Compound 75a] | 1 to 10 | 10 to 50 | > 10 | – | –
CCC(Nc1nc(N)nc(N)c1C#N)c1nc2c(C)cccc2c(=O)n1-c1cc(F)cc(F)c1 (single isomer, unassigned) [Compound 76a] | 10 to 50 | > 50 | > 10 | – | –
CCC(Nc1nc(N)nc(N)c1C#N)c1nc2cccc(Cl)c2c(=O)n1-c1cc(F)cc(F)c1 (single isomer, unassigned) [Compound 78a] | 1 to 10 | 1 to 10 | 6 to 10 | – | –
Cc1ccc(F)c2c(=O)n(-c3cccc(C#N)c3)c(C(C)Nc3nc(N)nc(N)c3C#N)nc12 (single isomer, unassigned) [Compound 82a] | 10 to 50 | > 50 | 6 to 10 | – | –
CC(Nc1nc(N)nc(N)c1C#N)c1nc2cccc(C(F)F)c2c(=O)n1-c1cc(F)cc(C(F)F)c1 (single isomer, unassigned) [Compound 99a] | 1 to 10 | 10 to 50 | 6 to 10 | – | –
CC(Nc1nc(N)nc(N)c1C(N)=O)c1nc2cccc(Cl)c2c(=O)n1-c1cccc(C(F)F)c1 (single isomer, unassigned) [Compound 100a] | 1 to 10 | 1 to 10 | 1 to 3 | – | –
CCC(Nc1nc(N)nc(N)c1C#N)c1nc2c(Cl)ccc(F)c2c(=O)n1-c1cc(F)cc(F)c1 (single isomer, unassigned) [Compound 102a] | 10 to 50 | 1 to 10 | 6 to 10 | – | –
CC(Nc1nc(N)nc(N)c1Cl)c1nc2cccc(Cl)c2c(=O)n1-c1ccccc1 (single isomer, unassigned) [Compound 104a] | – | 1 to 10 | 3 to 6 | < 1 | –
CC(C)c1cccc(-n2c(C(C)Nc3nc(N)nc(N)c3C#N)nc3cccc(Cl)c3c2=O)c1 (single isomer, unassigned) [Compound 107a] | 1 to 10 | 1 to 10 | < 1 | – | –
CC(C)CC(Nc1nc(N)nc(N)c1C#N)c1nc2cccc(Cl)c2c(=O)n1-c1cc(F)cc(F)c1 (single isomer, unassigned) [Compound 163a] | 1 to 10 | > 50 | 1 to 3 | – | –
COc1cc(F)cc(-n2c(C(C)Nc3nc(N)nc(N)c3C#N)nc3cccc(Cl)c3c2=O)c1 (single isomer, unassigned) [Compound 192a] | 1 to 10 | < 1 | 1 to 3 | – | –
Cc1ccc(F)cc1-n1c(C(C)Nc2nc(N)nc(N)c2C#N)nc2cccc(Cl)c2c1=O (single isomer, unassigned) [Compound 201a-2] | 1 to 10 | – | 6 to 10 | – | 1 to 10
